SMILES strings stand for the structures.

The text below walks through data of US5863913A, “Aromatic compound and pharmaceutical composition” (Kureha Chemical Industry Co., Ltd., priority 1996, dated 1999).

For one data set, the system named is ICR female mice. Description: Acute toxicity, single oral dose in mice. Conditions: mouse, in vivo. As to the method: The aromatic compounds of the formula (I) according to the present invention were orally administered to mice at the dose of 500 mg/kg, but no fatalities were observed over a period of one week.
Five-week-old ICR female mice (5 mice per group) were bred for acclimation for a week. Then, the compounds of the present invention were dissolved in water, and orally administered to the mice in a single dosage (500 mg/kg).

Data set [1] addresses T1, angiotensin II receptor subtype 1 (AT1) (Oryctolagus cuniculus, UniProt P34976).
T1 construct: receptor : from adrenal glands in rabbits; from tissue; host or cells: rabbit adrenal glands
T1 sequence (P34976 1-359): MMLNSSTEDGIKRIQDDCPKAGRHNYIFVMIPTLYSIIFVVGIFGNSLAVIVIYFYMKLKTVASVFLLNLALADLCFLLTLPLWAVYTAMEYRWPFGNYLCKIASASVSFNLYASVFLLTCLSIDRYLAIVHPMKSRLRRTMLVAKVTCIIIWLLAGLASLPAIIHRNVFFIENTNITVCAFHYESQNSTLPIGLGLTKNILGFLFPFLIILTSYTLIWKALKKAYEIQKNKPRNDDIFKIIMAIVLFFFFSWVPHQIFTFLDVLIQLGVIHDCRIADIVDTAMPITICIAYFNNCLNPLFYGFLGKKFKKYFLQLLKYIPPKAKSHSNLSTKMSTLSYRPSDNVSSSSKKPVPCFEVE
The data set is described as follows: Binding to receptors: angiotensin II receptor subtype 1 (AT1). Further details: species or system rabbits (adrenal glands). Conditions: rabbit adrenal glands, tracer 3H-angiotensin II. The procedure:
(§1) In this Example, the affinity to the angiotensin II receptor subtype 1 or subtype 2 was evaluated by a binding assay in accordance with the method described in Biochem. Pharmacol., 33, 4057-4062 (1984).
(§2) Specifically, the measurement of the total binding in the presence of each drug was performed as follows:
(§3) A mixture (final volume=0.25 ml) of a drug in a given concentration (the drug was dissolved in DMSO, and diluted to a double volume with a buffer attached to a drug discovery system to prepare a sample for the assay; 0.025 ml), a tracer (0.025 ml), and receptors (0.2 ml) was incubated [in the case of the angiotensin II receptor subtype 1 (AT1), at room temperature for 3 hours, and in the case of the subtype 2 (AT2), at 37° C. for 1 hour]. Then, the reaction mixture was filtered with suction (GF/C filter was used in AT1, and GF/B filter was used in AT2). The filter papers after filtration with suction (the tracer bound to the receptors) were counted by a γ-well counter (ARC-500, Aloka). The non-specific bindings were measured by repeating the above method, except that a large excess amount of a displacer was added. The specific binding of the drug in the given concentration was calculated by subtracting the non-specific binding from the total binding, respectively.
receptor : from adrenal glands in rabbits
tracer : ^3 Hangiotensin II

The target in data set [2] is T2, angiotensin II receptor subtype 2 (AT2) (Bos taurus, UniProt G5E6F7).
T2 construct: receptor : from cerebellar cortex in bovine; from tissue; host or cells: bovine cerebellar cortex
T2 sequence (G5E6F7 1-362): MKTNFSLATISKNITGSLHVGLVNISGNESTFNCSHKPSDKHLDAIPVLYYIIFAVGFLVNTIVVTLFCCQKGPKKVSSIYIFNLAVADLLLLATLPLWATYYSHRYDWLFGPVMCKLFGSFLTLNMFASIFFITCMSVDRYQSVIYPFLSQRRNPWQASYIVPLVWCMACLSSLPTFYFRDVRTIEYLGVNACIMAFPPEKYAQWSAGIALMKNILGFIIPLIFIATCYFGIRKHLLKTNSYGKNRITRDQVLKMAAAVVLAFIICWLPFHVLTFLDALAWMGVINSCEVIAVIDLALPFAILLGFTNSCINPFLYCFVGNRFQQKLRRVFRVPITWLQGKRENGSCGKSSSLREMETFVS
Description: Binding to receptors: angiotensin II receptor subtype 2 (AT2). As to conditions: bovine cerebellar cortex, tracer 125I-Tyr4-angiotensin II. As to the method:
as §1, §2, §3
In AT1 and AT2, the percentages found to inhibit the bindings of radioactive ligands (tracer) to receptors by the drugs to be tested (IC50 value of concentration to show 50% inhibition, or binding inhibition % in 100 μM) were measured, using the drugs to be tested and control drugs in the given concentration.
receptor : from cerebellar cortex in bovine
tracer : ^125 ITyr^4angiotensin II
control drug : angiotensin II (human)
(displacer) : angiotensin II (human)

Data set [3] has as its system kidney disease model rats. Description: Action to lower blood pressure in kidney disease model rats (tail cuff). The format is in vivo, Sprague-Dawley female rats. Conditions: for Blood Pressure: systolic, average of 8 rats, 20 mg/kg with drinking water, two days after administration, control 210. As to the method: (§4) The compounds of the present invention and the reference substance were administered with drinking water to kidney disease model rats, and the action of lowering the blood pressure was observed. The kidney disease model rats were prepared by a ligature of branches of renal artery in accordance with a conventional method. Namely, the left hilum renalis of Sprague-Dawley female rats was exposed under anesthesia, and one of four secondary branches of the renal artery was left unligated, while the remaining three branches were ligated, respectively. After a week, the hilum renalis (artery, vein, and ureter) of the right kidney were further ligated to thereby prepare rats whose renal function was lowered to approximately 1/8 of the normal function. Each group consisted of eight rats. The drugs to be tested (20 mg/kg) were administered to each administering group, and only water was administered to a control group. Two days after the administration, the systolic blood pressure was measured by the tail cuff method using a blood pressure measuring apparatus (UR5000; Ueda).

The subject of data set [4] is kidney disease model rats. Description: Renal function indicatory value in kidney disease model rats. The class given is in vivo, Sprague-Dawley female rats. As to conditions: 20 mg/kg/day with drinking water, six weeks; for Creatinine clearance: 24 hours urine, control 0.22; for Creatinine / Blood urea nitrogen: serum; for Creatinine: control 2.0; for Blood urea nitrogen: control 100. As to the method:
as §4, with “The” for “The compounds of the present invention and the reference substance were administered with drinking water to kidney disease model rats, and the action of lowering the blood pressure was observed. The”
The rats in each group were allowed to freely take up food. […] To the rats in the control group, only water was administered every day. After six weeks, 0.2 ml of blood was collected from the carotid artery of the rats under anesthesia, and centrifuged to obtain serum. Using 25 μl of the serum, the serum creatinine (Scr) was measured by a creatinine analytical instrument (Beckman). Using 10 μl of the serum, the blood urea nitrogen (BUN) was measured by a BUN analytical instrument (Beckman). The creatinine clearance was evaluated as follows:
After the serum creatinine measurement, rats were placed in urinary metabolic cages for 24 hours to collect urine. A urinary creatine concentration (Ucr) was measured by a creatinine analytical instrument, and a total volume of urination (Uvol) was also measured. The creatinine clearance (CCr) was calculated by the following formula: [formula]

Data set [5] deals with kidney disease model rats. The data set is described as follows: Survival time of kidney diseased animals. The format is in vivo, Sprague-Dawley female rats. Conditions: 20 mg/kg/day with drinking water, observation period eight weeks (upper limit); control 5.0. The procedure: as §4
The kidney disease model rats were prepared as in Example 54. Twenty-two groups (8 rats per group) were prepared in a manner such that there was no major difference between the groups in the serum creatinine value and the blood urea nitrogen value indicating renal function. The rats in each group were allowed to freely take up food. […] To the rats in the control group, only water was administered every day. If kidney diseases are aggravated, the rat will die of uremia. Thus, the survival time was observed as a comprehensive indication of the improvement of the effect on the kidney diseases. The observation period was eight weeks. Thus if all rats survived, the average survival time is eight weeks, and is an upper limit.

What is called inhibition is the change of the read-out against control, counted positive when it falls. Low values mean a weak effect, high ones a strong effect. `CCCCC(=O)N(Cc1ccc(C(=O)OCC(N)C(=O)OCC)cc1)c1cc(C(=O)N2CCOCC2)ccc1N(C)C` (stereo not drawn) [Compound No. 4, 3-N-[[[[4-(2'-amino-2'-ethoxycarbonyl)ethoxycarbonyl]phenyl]methyl]valeramido]-4-dimethyl aminobenzoic acid morpholide]: in the data set with ICR female mice, the “Number of deaths/number of survivals” value is reported as 0/5. In data set [1], this compound displayed an inhibition at 100 µM of 11%. Further, 100 µM produced 0% inhibition in data set [2]. Further, in data set [3], the “Blood Pressure” value was 204 mmHg. In data set [4], this compound gave a Creatinine clearance of 0.37 mL/min, a Creatinine of 1.4 mg/dL and a Blood urea nitrogen of 72 mg/dL. In data set [5], the Average survival time is 6.9 weeks.

`CCCCC(=O)N(Cc1ccc(C(=O)OC2CNC(C(=O)OCC)C2)cc1)c1cc(C(=O)N2CCOCC2)ccc1N(C)C` (stereo not drawn) [Compound No. 5, 4-dimethylamino-3-N-[[[[4-(2'-ethoxycarbonylpyrrolidin-4'-yloxy)carbonyl]phenyl]methyl]valeramido]benzoic acid morpholide]: the “Number of deaths/number of survivals” value in the data set on ICR female mice is reported as 0/5. In data set [1], this compound displayed an inhibition at 100 µM of 11%. In data set [2], this compound had an inhibition at 100 µM of 0%. Also, the “Blood Pressure” value in data set [3] was 200 mmHg. Moreover, in data set [4], the Creatinine clearance was 0.30 mL/min, the Creatinine stood at 1.6 mg/dL and the Blood urea nitrogen was found to be 82 mg/dL. Besides, in data set [5], the Average survival time turned out to be 6.9 weeks.

Regarding `CCCCC(=O)N(Cc1ccc(C(=O)O)cc1)c1cc(C(=O)N2CCN(C)CC2)ccc1N(C)C` [Compound No. 10, 3-[[(4-carboxyohenyl)methyl]valeramido]-4-dimethylaminobenzoic acid 4'-methylpiperazide], in the data set with ICR female mice, the “Number of deaths/number of survivals” value is 0/5. This compound displayed an inhibition at 100 µM in data set [1] of 13%. Also, the inhibition at 100 µM in data set [2] was determined as 0%. Further, in data set [3], the “Blood Pressure” value was 206 mmHg. Moreover, in data set [4], the Creatinine clearance is 0.32 mL/min, the Creatinine is 1.6 mg/dL and the Blood urea nitrogen was 81 mg/dL. Moreover, the Average survival time in data set [5] is reported as 6.9 weeks.

In the case of `CCCCCCCC(=O)N(Cc1ccc(C(=O)O)cc1)c1cc(C(=O)N2CCN(C)CC2)ccc1N(C)C` [Compound No. 14, 3-[[(4-carboxyphenyl)methyl]n-octanamido]-4-dimethylaminobenzoic acid 4'-methylpiperazide], the “Number of deaths/number of survivals” value in the data set with ICR female mice is 0/5. This compound yielded an inhibition at 100 µM in data set [1] of 0%. The compound further returned an inhibition at 100 µM in data set [2] of 0%. Moreover, the “Blood Pressure” value in data set [3] was found to be 205 mmHg. In data set [4], this compound displayed a Creatinine clearance of 0.27 mL/min, a Creatinine of 1.7 mg/dL and a Blood urea nitrogen of 86 mg/dL. Also, the Average survival time in data set [5] was 6.3 weeks.

With `CCCCC(=O)N(Cc1ccc(C(=O)OCC)cc1)c1cc(C(=O)N2CCN(C)CC2)ccc1C(C)C` [Compound No. 16, 3-[[(4-ethoxycarbonylphenyl)methyl]valeramido]-4-i-propylbenzoic acid 4'-methylpiperazide], the “Number of deaths/number of survivals” value in the data set with ICR female mice is 0/5. Also, in data set [1], the inhibition at 100 µM amounted to 0%. Moreover, at 100 µM the inhibition in data set [2] was 0%. Also, the “Blood Pressure” value in data set [3] is listed as 202 mmHg. In data set [4], the Creatinine clearance is 0.33 mL/min, the Creatinine was 1.5 mg/dL and the Blood urea nitrogen was 78 mg/dL. Also, in data set [5], the Average survival time is recorded as 6.9 weeks.

On to `CCCCC(=O)N(Cc1ccc(C(=O)O)cc1)c1cc(C(=O)N(CC)CCN(CC)CC)ccc1C(C)C` [Compound No. 17], for which the “Number of deaths/number of survivals” value with ICR female mice is 0/5. Also, the inhibition at 100 µM in data set [1] is 4%. This compound came in with an inhibition at 100 µM in data set [2] of 23%. Also, the “Blood Pressure” value in data set [3] was found to be 201 mmHg. In data set [4], the Creatinine clearance is 0.33 mL/min, the Creatinine amounted to 1.5 mg/dL and the Blood urea nitrogen was 78 mg/dL. This compound returned an Average survival time in data set [5] of 6.9 weeks.

With `CCCCc1nc(Cl)c(CO)n1Cc1ccc(-c2ccccc2-c2nn[nH]n2)cc1` [DuP753, reference compound], the “action of lowering the blood pressure” value in data set [3] (result in words, in comparison with the control group) is recorded as “clearly exhibited the action of lowering the blood pressure”. Also, the “Blood Pressure” value in data set [3] is 130 mmHg. Also, in data set [4], the Creatinine clearance amounted to 0.32 mL/min, the Creatinine came out at 1.6 mg/dL and the Blood urea nitrogen was 80 mg/dL. For the same compound, in data set [5], the Average survival time is listed as 6.9 weeks.
